{"source": "paper PMC5992482", "about": "(Molecular Therapy. Nucleic Acids, 2018)", "biological_target": "T1, Nicotinamide N-methyltransferase (NNMT) (Homo sapiens, UniProt P40261)", "T1 sequence (P40261 1-264)": "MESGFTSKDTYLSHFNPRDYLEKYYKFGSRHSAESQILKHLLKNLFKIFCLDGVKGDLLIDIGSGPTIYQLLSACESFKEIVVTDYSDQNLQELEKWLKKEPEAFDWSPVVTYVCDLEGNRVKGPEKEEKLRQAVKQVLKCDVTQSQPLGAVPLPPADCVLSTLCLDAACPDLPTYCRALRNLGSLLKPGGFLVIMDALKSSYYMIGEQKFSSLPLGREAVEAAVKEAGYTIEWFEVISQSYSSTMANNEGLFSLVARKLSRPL", "test": "in vitro enzyme activity assay with purified NNMT", "assay_type": "biochemical"}
{"smiles": "C=C(C)[C@@]12O[C@@]3(/C=C/C=C/CCCCC)O[C@@H]1[C@@H]1[C@@H]4O[C@]4(CO)[C@@H](O)[C@]4(O)C(=O)C(C)=C[C@H]4[C@@]1(O3)[C@H](C)[C@H]2OC(C)=O", "note": "[YD, yuanhuadine]", "values": [{"measurement": "IC50", "value": 400, "unit": "nM"}]}
